Consider two compounds from PMC4767466, “Identification of a novel platelet antagonist that binds to CLEC-2 and suppresses podoplanin-induced platelet aggregation and cancer metastasis” (Oncotarget, 2015).

In general, Kd refers to the equilibrium constant for the complex coming apart.

Assay [1] deals with T1, CLEC-2 (C-type lectin-like receptor 2) (Homo sapiens, UniProt Q9P126).
T1 construct: gene CLEC1B; recombinant CLEC-2
Kind of assay: SPR (Biacore T200, CLEC-2 amine-coupled to CM5 chip, equilibrium fit). The format is binding. In general terms: SPR reads the build-up and loss of mass on a sensor chip optically.

The next assay deals with CLEC-2 (Homo sapiens) (UniProt Q9P126). As to conditions: cited from earlier work.
CLEC-2 (Homo sapiens), sequence (Q9P126 whole entry): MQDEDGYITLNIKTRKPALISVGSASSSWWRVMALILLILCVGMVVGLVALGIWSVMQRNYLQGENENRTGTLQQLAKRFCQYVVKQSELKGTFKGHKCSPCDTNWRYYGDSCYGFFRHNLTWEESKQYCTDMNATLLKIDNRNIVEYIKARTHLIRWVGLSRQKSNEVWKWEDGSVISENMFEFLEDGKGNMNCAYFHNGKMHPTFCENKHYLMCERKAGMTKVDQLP

T1 sequence (Q9P126 whole entry): as above

Consider `O=C(NCCNC(=O)c1cc([N+](=O)[O-])ccc1O)c1ccccc1` [2CP], for which the Kd in assay [1] turned out to be 33.2 ± 1.9 µM. For podoplanin (from UniProt Q86YL7), the Kd with CLEC-2 (Homo sapiens) was 24.5 µM.
